Measurements: publication PMC5442318, “Hundreds of dual-stage antimalarial molecules discovered by a functional gametocyte screen” (Nature Communications, 2017)
Where two headings read alike, the source gives them in different places.

Columns and labels:
[1] = tested on: P. falciparum asexual blood stages; settings: read-out: Pf Asexual blood stages XC50, cited from earlier work
[2] = tested on: HepG2 cells; test: HepG2 cytotoxicity assay; format: cell-based; settings: mean
Method: After incubation, plates and CellTiter-Glo Reagent (G7571, Promega) were equilibrated at room temperature for 30 min before proceeding to develop the luminescent signal. Using a Multidrop combi dispenser, 25 μl per well of the signal developer were added to the plates and after 10 min at room temperature for stabilization, plates were read on the ViewLux system (Perkin Elmer).

[3] = tested on: P. falciparum stages IV–V gametocytes; test: Gametocytocidal ATP-depletion assay (gametocyte ATP bioluminescence); format: cell-based, Plasmodium falciparum
Method: In parallel, the set of confirmed hits from the Pf FGAA screen was cross-compared in the gametocyte ATP-depletion assay, at 2 μM single concentration (Supplementary Data 1). This assay monitors ATP levels as surrogate of gametocyte viability.
‘Viability' of mature gametocytes was determined using the gametocyte ATP bioluminiscence assay. Briefly, stages IV–V gametocyte cultures were double-purified by differential sedimentation followed by magnetic isolation. Then, parasites (50 μl per well containing 12,500 gametocytes) were added to compound pre-dispensed 384-well plates (781091, Greiner Bio-One) and incubated at 37 °C for 48 h (3% O2, 5% CO2 and 92% N2). BacTiter-Glo kit (G8231, Promega) was used to determine the ATP levels of ‘live' parasites according to the manufacturer's instructions. After reagent addition (50 μl per well), luminescence of the plates was measured using a microplate reader (HTS counter Victor, Wallac).

[4] = tested on: P. falciparum stage V female gametocytes; test: P. falciparum female gametocyte activation assay (Pf FGAA), 24 h or 48 h preincubation, Pfs25 expression readout; format: cell-based, Plasmodium falciparum NF54; settings: mean, read-out: Gametocytes mean Pf FGAA IC50
Method: P. falciparum NF54 (originally isolated from an imported malaria case in the Netherlands in the 1980s; BEI Resources, cat. no. MRA-1000) asexual-stage culture was performed as described by Trager and Jensen[37]. Cultures synchronized at the ring stage were used to start gametocyte cultures (day 0) at 1% parasitaemia and 4% haematocrit in 200 ml final volume using culture bottles (Nalgene 3110-42, Thermo Scientific). Complete culture medium (RPMI 1640 supplemented with 25 mM HEPES, 50 μg ml^−1 hypoxanthine, 2 g l^−1 NaHCO3 and 10% pooled human male type A+ serum) was totally replaced daily for 14 days without fresh erythrocyte addition. Human serum was obtained from Interstate Blood Bank, A^+ serotype; no aspirin 2 h before drawing and no antimalarials 2 weeks before drawing. To ensure a stable temperature at 37 °C, which is crucial for gametocyte production and maturation, pre-warmed medium and a slide warmer (XH-2001, Premiere) were used. Under these conditions, parasitaemia reaches a peak of asexual stages on days 4–5, and the first gametocytes are differentiated in culture on day 6. Sexual-stage development was monitored microscopically by Giemsa-stained thin blood smears at day 7 (mainly asexual stages and stages I to III gametocytes) and day 14 (stages IV and V gametocytes).
Cultures showing mainly stage V gametocytes were purified by differential sedimentation as previously reported. The gametocyte concentration was adjusted to plate 8,000 gametocytes per well (100 μl per well) in 384-well poly-D-lysine coated plates (781946, Greiner Bio-One) containing the compounds to test. […] Female gametocyte activation was then triggered by temperature drop and addition of xanthurenic acid (D120804, Sigma) as previously described. To detect female gametes, monoclonal anti-Pfs25 antibody[38] 4B7 (BEI Resources (formerly MR4), cat. no. MRA-315) conjugated to the Cy3 fluorochrome (GE Healthcare) was added to ookinete medium (RPMI 1640 supplemented with 25 mM HEPES, 50 μg ml^−1 hypoxanthine, 2 g l^−1 NaHCO3, 100 μM xanthurenic acid and 20% human serum) at a final concentration of 0.5 μg ml^−1. Activated cultures were then kept at 26 °C for 24 h protected from light, and image acquisition was performed in the Opera High-Content Screening System (PerkinElmer). Using × 10 air objective, five images per well were taken using 532 nm excitation. Images were analysed with a Columbus image data storage and analysis system (PerkinElmer) based on a script specifically designed for this assay that considers size, roundness and intensity of fluorescence of the female activated gametocytes.
Compounds were dissolved in 100% DMSO and dispensed in the 384-well plates using an Echo-CRS liquid handler. Compounds were tested in 2–3 independent experiments. […] Based on that, Z′ factor was calculated for each plate and only those ones with values higher than 0.4 were considered acceptable for data analysis.
Assay performance statistics, such as signal to background ratio, Z′ and robust 3 s.d. activity cut-off were calculated using templates in ActivityBase XE (IDBS, Guilford, Surrey, UK). Hit population analysis and visualization were conducted using Spotfire DecisionSite (Spotfire, Inc., Somerville, MA, USA). The pIC50 (−log IC50) values were obtained using the ActivityBase XE nonlinear regression function in the full curve analysis bundle.

[5] = TCAMS asexual blood stage data, ref 1 (Gamo, F. J. et al., Nature 465, 305-310, 2010)
[6] = P. falciparum female gametocytes
[7] = TCAMS data, ref 1 (Gamo et al., 2010)

| Compound | IC50 [1, 5] [nM] | HepG2 cells mean TOX50 ([2]; HepG2 cells) [µM] | Gametocytes mean ATP inhibition at 2µM [3] [%] | IC50 [4, 6] [nM] | IC50 [1, 7] [nM] | HepG2 cells mean TOX50 [2] [µM] | Gametocytes mean ATP inhibition at 2µM (%) [3] [%] | IC50 [4] [nM] |
| --- | --- | --- | --- | --- | --- | --- | --- | --- |
| CN(C)Cc1cccc2nc(-c3csc(Cc4cc(Cl)ccc4OCc4ccccc4)n3)[nH]c12 [TCMDC-132174] | 1120 | 13.04 | 47.80 | 2100 |  |  |  |  |
| N=C(NCC1CC1c1ccccc1)c1cccc(C(=N)NCC2CC2c2ccccc2)n1 (centres unmarked) [TCMDC-137456] |  |  |  |  | 1760 | 6.21 | 24.65 | 1890 |
| COc1ccccc1C1CCN(C2CCC(NC(=O)c3ccc4[nH]c(-c5ccc(C)cc5)nc4c3)CC2)CC1 (centres unmarked) [TCMDC-133556] | 310 | 3.99 | 22.02 | 2490 |  |  |  |  |
| CCCC(=O)NC(c1ccc(C(C)C)cc1)c1ccc2cccnc2c1O (centres unmarked) [TCMDC-123884] | 930 | >100 | 63.50 | 1540 |  |  |  |  |
| C=CCOc1ccc2ccccc2c1CNCCCCCCNCc1c(OCC=C)ccc2ccccc12.CS(=O)(=O)O [TCMDC-137340] |  |  |  |  | 860 | 1.93 | 58.99 | 700 |
| COc1ccc2cc(CNCCCCCCNCc3ccc4cc(OC)ccc4c3)ccc2c1.CS(=O)(=O)O [TCMDC-137797] |  |  |  |  | 620 | 1.55 | 35.46 | 590 |
| FC(F)(F)c1ccc2[nH]c(-c3ccc(-c4cccc(CNCCN5CCNCC5)c4)cc3)nc2c1.O=C(O)C(F)(F)F [TCMDC-132864] | 1030 | 12.31 | 10.30 | 1710 |  |  |  |  |
| CNC(=S)NN=C(C)c1ccccn1 [TCMDC-123475] | 270 |  | 81.04 | 14 |  |  |  |  |
| COc1cc2nc(N3CCC(CNC(=O)c4ccc(-c5ccc(-c6noc(C)n6)cc5)cc4)CC3)nc(N)c2cc1OC [TCMDC-138754] |  |  |  |  | 140 | 4.90 | 90.89 | 1050 |
| CC(=NNC(S)=NCc1ccco1)c1ccccn1 [TCMDC-137906] |  |  |  |  | 250 |  | 77.01 | 20 |
| COc1ccc(CNC(=O)c2cnc3c(O)cccc3c2Nc2cccc(NC(=O)c3ccc(Cl)c(Cl)c3)c2)cc1.O=C(O)C(F)(F)F [TCMDC-139607] |  |  |  |  | 600 |  | 90.02 | 1600 |
| Cl.c1ccc2c(Nc3ccc(OCCOCCOc4ccc(Nc5c6ccccc6nc6ccccc56)cc4)cc3)c3ccccc3nc2c1 [TCMDC-137355] |  |  |  |  | 280 | 5.59 | -18.54 |  |
| NC(=Nc1nc(-c2ccccn2)cc2ccccc12)c1cccc(Cl)c1 [TCMDC-123745] | 310 |  | 49.04 | 50 |  |  |  |  |
| CCn1c(-c2nonc2N)nc2c(-c3cccc(NC(=O)NC45CC6CC(CC(C6)C4)C5)c3)ncc(OCCCN)c21.O=C(O)C(F)(F)F [TCMDC-136246] |  |  |  |  |  | 6.10 | -16.91 | 1360 |
| COc1ccc(CNC(=O)c2cnc3c(O)cccc3c2Nc2cccc(NC(=O)c3ccc(-c4ccccc4)cc3)c2)cc1.O=C(O)C(F)(F)F [TCMDC-139611] |  |  |  |  | 940 |  | 88.95 | 1820 |
| CCN(CC)CC(O)CNc1c2ccc([N+](=O)[O-])cc2nc2cc(OC)c(OC)cc12.Cl (centres unmarked) [TCMDC-138079] |  |  |  |  | 270 |  | 44.60 | 3890 |
| c1ccc(-c2csc(Nc3nc4cc5c(cc4s3)OCO5)n2)nc1 [TCMDC-124550] | 580 |  | 56.70 | 32.3 |  |  |  |  |
| CC(Cc1ccc(CNC(=O)NCc2ccc(CC(C)NCCc3cccc(Cl)c3)cc2)cc1)NCCc1cccc(Cl)c1 (centres unmarked) [TCMDC-139648] |  |  |  |  | 690 | 3.94 | 12.15 |  |
| Cc1ccc(Nc2nc(-c3ccccn3)cs2)nc1 [TCMDC-125854] | 750 |  | 82.15 | 27.3 |  |  |  |  |
| Cc1cc(C(=O)Nc2nc(-c3ccccn3)nc3ccsc23)no1 [TCMDC-135243] | 810 |  | 53.53 | 350 |  |  |  |  |
| S=C(NN=Cc1ccccn1)NC1CC2C=CC1C2 (centres unmarked) [TCMDC-125752] | 720 |  | 74.38 | 15.3 |  |  |  |  |
| CC(=NNC(=S)NC(C)(C)C)c1ccccn1 [TCMDC-137783] |  |  |  |  | 160 |  | 84.85 | 40 |
| Cc1c(Cl)cccc1S(=O)(=O)Nc1ccc(CCN2CCC(N)CC2)cc1.Cl [TCMDC-134083] | 1460 | 13.86 | -1.32 |  |  |  |  |  |
| Oc1c(C(Nc2nc3ccccc3s2)c2ccccc2)ccc2cccnc12 (centres unmarked) [TCMDC-125565] | 650 |  | 91.61 | 3030 |  |  |  |  |
| CC(C)(C)c1ccc(C(=O)Nc2cccc(Nc3c(C(=O)NCc4cccc(C(F)(F)F)c4)cnc4c(O)cccc34)c2)cc1.O=C(O)C(F)(F)F [TCMDC-139610] |  |  |  |  | 1090 |  | 83.54 | 3630 |
